Test results: patent US20260318918A1, “CANCER DIAGNOSTICS AND TREATMENT BY MEANS OF PRMT5 INHIBITOR” (ARGONAUT THERAPEUTICS LIMITED, priority 2022, published 2026)

How the values were obtained:
Format in all cases: cell-based
[1] = tested on: U20S cell line (bone cancer); test: MTT cell viability assay, U20S (bone cancer), CRISPR knock-out; details: pRb deleted by CRISPR, 8 days
Method: T-47D cells were maintained in growth medium (RPMI 1640 supplemented with 10% v/v heat inactivated fetal bovine serum and cultured at 37° C., 5% CO2, U2OS, MCF7 and HCT116 cells were maintained in growth medium (DMEM supplemented with 10% v/v heat inactivated fetal bovine serum) and cultured at 37° C., 5% CO2. Under assay conditions, cells were incubated in assay medium (RPMI 1640 or […] supplemented with 10% v/v heat inactivated fetal bovine serum and 100 units/mL penicillin-streptomycin) at 37° C. under 5% CO2. For the assessment of the effect of compounds on the proliferation of the cancer cell lines, exponentially growing cells were plated into 96-well plates overnight at a density of 1,000 cells/well in a final volume of 100 μl of cell growth medium. […] NAD(P)H-dependent cellular oxidoreductase enzyme activity was measured by adding 100 μl thiazolyl blue tetrazolium bromide (MTT: Sigma-Aldrich) to the wells at a final concentration of […] and incubated for 2 h at 37° C. […] Absorbance was read on the Omega FLUOstar plate reader (BMG Labtech Ltd, Ortenberg, Germany) at a wavelength of 584 nm. Data were analysed and IC50 values determined using MARs data analysis software (BMG Labtech Ltd, Ortenberg, Germany). The concentration of compound inhibiting cell viability by 50% was determined using a 4-parametric fit of the normalized dose response curves. […]

[2] = tested on: HCT116 cell line (colorectal cancer); test: MTT cell viability assay, HCT116 (colorectal cancer), CRISPR knock-out; details: E2F1 deleted by CRISPR, 8 days
Method: (§1) T-47D cells were maintained in growth medium (RPMI 1640 supplemented with 10% v/v heat inactivated fetal bovine serum and cultured at 37° C., 5% CO2, U2OS, MCF7 and HCT116 cells were maintained in growth medium (DMEM supplemented with 10% v/v heat inactivated fetal bovine serum) and cultured at 37° C., 5% CO2. Under assay conditions, cells were incubated in assay medium (RPMI 1640 or […] supplemented with 10% v/v heat inactivated fetal bovine serum and 100 units/mL penicillin-streptomycin) at 37° C. under 5% CO2. For the assessment of the effect of compounds on the proliferation of the cancer cell lines, exponentially growing cells were plated into 96-well plates overnight at a density of 1,000 cells/well in a final volume of 100 μl of cell growth medium. The next day the cells were dosed with compounds (T-992, GSK3326595, LLY-283, PF-06939999 and JNJ64619178) (quadruplicate ten-point 5-fold serial dilutions in DMSO), beginning at 100 μM. After addition of compounds, assay plates were incubated for 8 days at 37° C., 5% CO2, relative humidity 90%. NAD(P)H-dependent cellular oxidoreductase enzyme activity was measured by adding 100 μl thiazolyl blue tetrazolium bromide (MTT: Sigma-Aldrich) to the wells at a final concentration of 5 μM and incubated for 2 h at 37° C. Next, media was discarded from the wells and the formazan crystals were dissolved in 100 μl DMSO by shaking for 15 min. Absorbance was read on the Omega FLUOstar plate reader (BMG Labtech Ltd, Ortenberg, Germany) at a wavelength of 584 nm. Data were analysed and IC50 values determined using MARs data analysis software (BMG Labtech Ltd, Ortenberg, Germany). The concentration of compound inhibiting cell viability by 50% was determined using a 4-parametric fit of the normalized dose response curves.
(§2) pSpCas9(BB)-2A-Puro (Addgene plasmid ID: 48139) was used for the generation of E2F1 and pRb knock out cell lines using CRISPR-Cas9 technology. Cell lines were generated as detailed in (Ran et al., 2013).

[3] = tested on: T-47D cell line (breast cancer); test: MTT cell viability assay, T-47D (breast cancer), CRISPR knock-out; details: 8 days; for sensitivity to PRMT5 inhibition (cell viability) of cells lacking E2F1: E2F1 deleted by CRISPR; for sensitivity to PRMT5 inhibition (cell viability) of cells lacking pRb: pRb deleted by CRISPR
Method: as §1, §2

SMILES: O[C@@H]1CO[C@H]2[C@@H]1OC[C@@H]2O [AT101]
- sensitivity to PRMT5 inhibition (cell viability) of cells lacking pRb [1]: more sensitive
- sensitivity to PRMT5 inhibition (cell viability) of cells lacking E2F1 [2]: less sensitive
- sensitivity to PRMT5 inhibition (cell viability) of cells lacking E2F1 [3]: less sensitive
- sensitivity to PRMT5 inhibition (cell viability) of cells lacking pRb [3]: more sensitive

SMILES: CC(=O)N1CCC(Nc2cc(C(=O)NC[C@H](O)CN3CCc4ccccc4C3)ncn2)CC1 [GSK3326595]
- sensitivity to PRMT5 inhibition (cell viability) of cells lacking E2F1 [2]: less sensitive
- sensitivity to PRMT5 inhibition (cell viability) of cells lacking E2F1 [3]: less sensitive
- sensitivity to PRMT5 inhibition (cell viability) of cells lacking pRb [3]: more sensitive

SMILES: Nc1nc2cc(CC[C@H]3C[C@@H](n4ccc5c(N)ncnc54)[C@H](O)[C@@H]3O)ccc2cc1Br [JNJ64619178]
- sensitivity to PRMT5 inhibition (cell viability) of cells lacking E2F1 [2]: less sensitive
- sensitivity to PRMT5 inhibition (cell viability) of cells lacking E2F1 [3]: less sensitive

SMILES: Nc1ncnc2c1ccn2[C@@H]1O[C@H]([C@H](O)c2ccccc2)[C@@H](O)[C@H]1O [LLY-283]
- sensitivity to PRMT5 inhibition (cell viability) of cells lacking E2F1 [2]: less sensitive
- sensitivity to PRMT5 inhibition (cell viability) of cells lacking E2F1 [3]: less sensitive

SMILES: Cc1ncnc2c1ccn2[C@@H]1C[C@H](Oc2cc(C(F)F)c(F)c3c2CNCC3)[C@@H](O)[C@H]1O [PF06939999]
- sensitivity to PRMT5 inhibition (cell viability) of cells lacking E2F1 [2]: less sensitive
- sensitivity to PRMT5 inhibition (cell viability) of cells lacking E2F1 [3]: less sensitive
- sensitivity to PRMT5 inhibition (cell viability) of cells lacking pRb [3]: more sensitive
